# Measured values as given in patent publication US9718828B2 (MERCK SHARP & DOHME CORP., priority 2011, dated 2017).
# Where two headings read alike, the source gives them in different places.
# Molecular target: hBTK (full-length BTK, 6HIS-tag cleaved) (Homo sapiens (Human), UniProt Q06187)
# Test: BTK enzymatic activity, LANCE TR-FRET assay (Assay Method C)
# Assay type: biochemical
# Conditions: 50 pM hBTK, 25 μM ATP
# [1] = LANCE TR-FRET, class 100-1000 is given as ≧100 nM-<1 μM, read-out: IC50 Btk activity values - Assay Method C
# [2] = Table D, Assay Method C (LANCE TR-FRET), read-out: IC50 BTK activity value
# Chain of hBTK (full-length BTK, 6HIS-tag cleaved) (Q06187 whole entry): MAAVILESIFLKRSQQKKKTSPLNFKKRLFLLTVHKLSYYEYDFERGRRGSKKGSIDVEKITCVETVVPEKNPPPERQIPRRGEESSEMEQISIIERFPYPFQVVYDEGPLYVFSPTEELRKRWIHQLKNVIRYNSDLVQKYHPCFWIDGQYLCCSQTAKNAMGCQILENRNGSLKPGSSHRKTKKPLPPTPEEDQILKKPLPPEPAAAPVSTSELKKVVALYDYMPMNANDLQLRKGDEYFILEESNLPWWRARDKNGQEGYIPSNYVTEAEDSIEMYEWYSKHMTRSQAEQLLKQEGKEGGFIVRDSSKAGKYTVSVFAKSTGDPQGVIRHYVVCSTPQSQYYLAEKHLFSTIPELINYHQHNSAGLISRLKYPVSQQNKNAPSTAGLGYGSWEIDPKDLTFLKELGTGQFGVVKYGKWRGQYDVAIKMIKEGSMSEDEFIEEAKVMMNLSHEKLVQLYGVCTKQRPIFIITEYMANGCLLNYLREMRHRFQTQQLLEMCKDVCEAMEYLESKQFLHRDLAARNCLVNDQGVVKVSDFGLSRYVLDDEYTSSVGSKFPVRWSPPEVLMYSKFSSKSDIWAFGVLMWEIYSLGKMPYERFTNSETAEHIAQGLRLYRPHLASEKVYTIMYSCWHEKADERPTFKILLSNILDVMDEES
SMILES,IC50 [1],IC50 [2]
"CC(C)N1CC(C(=O)N2CCC[C@@H](c3nc(-c4ccc(C(=O)Nc5cc(C(F)(F)F)ccn5)cc4)c4c(N)nccn34)C2)C1 [Example 329, 4-{8-amino-3-[(3R)-1-{[1-(1-methylethyl)azetidin-3-yl]carbonyl}piperidin-3-yl]imidazo[1,5-a]pyrazin-1-yl}-N-[4-(trifluoromethyl)pyridin-2-yl]benzamide]",< 10 nM,–
"Nc1nccn2c([C@@H]3CCCN(C(=O)c4cnsn4)C3)nc(-c3ccc(C(=O)Nc4cc(C(F)(F)F)ccn4)cc3)c12 [Example 330, 4-{8-amino-3-[(3R)-1-(1,2,5-thiadiazol-3-ylcarbonyl)piperidin-3-yl]imidazo[1,5-a]pyrazin-1-yl}-N-[4-(trifluoromethyl)pyridin-2-yl]benzamide]",< 10 nM,–
"Nc1nccn2c([C@@H]3CCCN(C(=O)CCC(F)(F)F)C3)nc(-c3ccc(C(=O)Nc4cc(C(F)(F)F)ccn4)cc3)c12 [Example 331, 4-{8-amino-3-[(3R)-1-(4,4,4-trifluorobutanoyl)piperidin-3-yl]imidazo[1,5-a]pyrazin-1-yl}-N-[4-(trifluoromethyl)pyridin-2-yl]benzamide]",< 10 nM,–
"Nc1nccn2c([C@@H]3CCCN(C(=O)CC(F)(F)F)C3)nc(-c3ccc(C(=O)Nc4cc(C(F)(F)F)ccn4)cc3)c12 [Example 332, 4-{8-amino-3-[(3R)-1-(3,3,3-trifluoropropanoyl)piperidin-3-yl]imidazo[1,5-a]pyrazin-1-yl}-N-[4-(trifluoromethyl)pyridin-2-yl]benzamide]",< 10 nM,–
"Nc1nccn2c([C@@H]3CCCN(C(=O)c4cnsc4)C3)nc(-c3ccc(C(=O)Nc4cc(C(F)(F)F)ccn4)cc3)c12 [Example 333, 4-{8-amino-3-[(3R)-1-(isothiazol-4-ylcarbonyl)piperidin-3-yl]imidazo[1,5-a]pyrazin-1-yl}-N-[4-(trifluoromethyl)pyridin-2-yl]benzamide]",< 10 nM,–
"COCC1(C(=O)N2CCC[C@@H](c3nc(-c4ccc(C(=O)Nc5cc(C(F)(F)F)ccn5)cc4)c4c(N)nccn34)C2)CC1 [Example 334, 4-{8-amino-3-[(3R)-1-{[1-(methoxymethyl)cyclopropyl]carbonyl}piperidin-3-yl]imidazo[1,5-a]pyrazin-1-yl}-N-[4-(trifluoromethyl)pyridin-2-yl]benzamide]",< 10 nM,–
"N#CC1(C(=O)N2CCC[C@@H](c3nc(-c4ccc(C(=O)Nc5cc(C(F)(F)F)ccn5)cc4)c4c(N)nccn34)C2)CC1 [Example 335, 4-(8-amino-3-{(3R)-1-[(1-cyanocyclopropyl)carbonyl]piperidin-3-yl}imidazo[1,5-a]pyrazin-1-yl)-N-[4-(trifluoromethyl)pyridin-2-yl]benzamide]",< 10 nM,–
"Nc1nccn2c([C@@H]3CCCN(C(=O)[C@@H]4CC(F)(F)CN4)C3)nc(-c3ccc(C(=O)Nc4cc(C(F)(F)F)ccn4)cc3)c12 [Example 337, 4-{8-amino-3-[(3R)-1-(4,4-difluoro-L-prolyl)piperidin-3-yl]imidazo[1,5-a]pyrazin-1-yl}-N-[4-(trifluoromethyl)pyridin-2-yl]benzamide]",< 10 nM,–
"CC1(CN2CCC[C@@H](c3nc(-c4ccc(C(=O)Nc5cc(C(F)(F)F)ccn5)cc4)c4c(N)nccn34)C2)COC1 [Example 338, 4-(8-amino-3-{(3R)-[(3-methyloxetan-3-yl)methyl]piperidin-3-yl}imidazo[1,5-a]pyrazin-1-yl)-N-[4-(trifluoromethyl)pyridin-2-yl]benzamide]",< 10 nM,–
"COCC(=O)N1CCC[C@@H](c2nc(-c3ccc(C(=O)Nc4cc(C(F)(F)F)ccn4)cc3)c3c(N)nccn23)C1 [Example 340, 4-{8-amino-3-[(3R)-1-(methoxyacetyl)piperidin-3-yl]imidazo[1,5-a]pyrazin-1-yl}-N-[4-(trifluoromethyl)pyridin-2-yl]benzamide]",< 10 nM,–
"Nc1nccn2c([C@@H]3CCCN(C(=O)C4(O)CC4)C3)nc(-c3ccc(C(=O)Nc4cc(C(F)(F)F)ccn4)cc3)c12 [Example 342, 4-(8-amino-3-{(3R)-1-[(1-hydroxycyclopropyl)carbonyl]piperidin-3-yl}imidazo[1,5-a]pyrazin-1-yl)-N-[4-(trifluoromethyl)pyridin-2-yl]benzamide]",< 10 nM,–
"Nc1nccn2c([C@@H]3CCCN(C(=O)C4CC4(F)F)C3)nc(-c3ccc(C(=O)Nc4cc(C(F)(F)F)ccn4)cc3)c12 (stereo partly drawn) [Example 344, 4-(8-amino-3-{(3R)-1-[(2,2-difluorocyclopropyl)carbonyl]piperidin-3-yl}imidazo[1,5-a]pyrazin-1-yl)-N-[4-(trifluoromethyl)pyridin-2-yl]benzamide]",< 10 nM,–
"C[C@H](O)C(=O)N1CCC[C@@H](c2nc(-c3ccc(C(=O)Nc4cc(C(F)(F)F)ccn4)cc3)c3c(N)nccn23)C1 [Example 345, 4-(8-amino-3-{(3R)-1-[(2S)-2-hydroxypropanoyl]piperidin-3-yl}imidazo[1,5-a]pyrazin-1-yl)-N-[4-(trifluoromethyl)pyridin-2-yl]benzamide]",< 10 nM,0.472 nM
"C[C@@H](O)C(=O)N1CCC[C@@H](c2nc(-c3ccc(C(=O)Nc4cc(C(F)(F)F)ccn4)cc3)c3c(N)nccn23)C1 [Example 346, 4-(8-amino-3-{(3R)-1-[(2R)-2-hydroxypropanoyl]piperidin-3-yl}imidazo[1,5-a]pyrazin-1-yl)-N-[4-(trifluoromethyl)pyridin-2-yl]benzamide]",< 10 nM,0.219 nM
"CN(C)CC(=O)N1CCC[C@@H](c2nc(-c3ccc(C(=O)Nc4cc(C(F)(F)F)ccn4)cc3)c3c(N)nccn23)C1 [Example 347, 4-{8-amino-3-[(3R)-1-(N,N-dimethylglycyl)piperidin-3-yl]imidazo[1,5-a]pyrazin-1-yl}-N-[4-(trifluoromethyl)pyridin-2-yl]benzamide]",< 10 nM,–
"CC1(C(=O)N2CCC[C@@H](c3nc(-c4ccc(C(=O)Nc5ccc(F)cn5)cc4)c4c(N)nccn34)C2)COC1 [Example 351, 4-(8-amino-3-{(3R)-1-[(3-methyloxetan-3-yl)carbonyl]piperidin-3-yl}imidazo[1,5-a]pyrazin-1-yl)-N-(5-fluoropyridin-2-yl)benzamide]",10 to 100 nM,–

# More lines, now with the values ahead:
IC50 [1],IC50 [2],SMILES
< 10 nM,–,"Nc1nccn2c([C@@H]3CCCN(C(=O)c4cnccn4)C3)nc(-c3ccc(C(=O)Nc4cc(C(F)(F)F)ccn4)cc3)c12 [Example 336, 4-{8-amino-3-[(3R)-1-(pyrazin-2-ylcarbonyl)piperidin-3-yl]imidazo[1,5-a]pyrazin-1-yl}-N-[4-(trifluoromethyl)pyridin-2-yl]benzamide]"
< 10 nM,–,"CCOCC(=O)N1CCC[C@@H](c2nc(-c3ccc(C(=O)Nc4cc(C(F)(F)F)ccn4)cc3)c3c(N)nccn23)C1 [Example 339, 4-{8-amino-3-[(3R)-1-(ethoxyacetyl)piperidin-3-yl]imidazo[1,5-a]pyrazin-1-yl}-N-[4-(trifluoromethyl)pyridin-2-yl]benzamide]"
< 10 nM,–,"CN1CCC[C@H]1C(=O)N1CCC[C@@H](c2nc(-c3ccc(C(=O)Nc4cc(C(F)(F)F)ccn4)cc3)c3c(N)nccn23)C1 [Example 341, 4-{8-amino-3-[(3R)-1-(1-methyl-L-prolyl)piperidin-3-yl]imidazo[1,5-a]pyrazin-1-yl}-N-[4-(trifluoromethyl)pyridin-2-yl]benzamide]"
< 10 nM,–,"CCC(O)C(=O)N1CCC[C@@H](c2nc(-c3ccc(C(=O)Nc4cc(C(F)(F)F)ccn4)cc3)c3c(N)nccn23)C1 (stereo partly drawn) [Example 343, 4-{8-amino-3-[(3R)-1-(2-hydroxybutanoyl)piperidin-3-yl]imidazo[1,5-a]pyrazin-1-yl}-N-[4-(trifluoromethyl)pyridin-2-yl]benzamide]"
< 10 nM,–,"CN1CC[C@@H](C(=O)N2CCC[C@@H](c3nc(-c4ccc(C(=O)Nc5cc(C(F)(F)F)ccn5)cc4)c4c(N)nccn34)C2)C1 [Example 348, 4-(8-amino-3-[(3R)-1-{[(3R)-1-methylpyrrolidin-3-yl]carbonyl}piperidin-3-yl]imidazo[1,5-a]pyrazin-1-yl}-N-[4-(trifluoromethyl)pyridin-2-yl]benzamide]"
< 10 nM,–,"CS(=O)(=O)CC(=O)N1CCC[C@@H](c2nc(-c3ccc(C(=O)Nc4cc(C(F)(F)F)ccn4)cc3)c3c(N)nccn23)C1 [Example 349, 4-(8-amino-3-{(3R)-1-[(methylsulfonyl)acetyl]piperidin-3-yl}imidazo[1,5-a]pyrazin-1-yl)-N-[4-(trifluoromethyl)pyridin-2-yl]benzamide]"
10 to 100 nM,–,"CC1(C(=O)N2CCC[C@@H](c3nc(-c4ccc(C(=O)Nc5cscn5)cc4)c4c(N)nccn34)C2)COC1 [Example 350, 4-(8-amino-3-{(3R)-1-[(3-methyloxetan-3-yl)carbonyl]piperidin-3-yl}imidazo[1,5-a]pyrazin-1-yl)-N-1,3-thiazol-4-ylbenzamide]"
< 10 nM,–,"Cc1ccnc(NC(=O)c2ccc(-c3nc([C@@H]4CCCN(C(=O)C5(C)COC5)C4)n4ccnc(N)c34)cc2)c1 [Example 352, 4-(8-amino-3-{(3R)-1-[(3-methyloxetan-3-yl)carbonyl]piperidin-3-yl}imidazo[1,5-a]pyrazin-1-yl)-N-(4-methylpyridin-2-yl)benzamide]"
100 to 1000 nM,–,"Cc1cc(NC(=O)c2ccc(-c3nc([C@@H]4CCCN(C(=O)C5(C)COC5)C4)n4ccnc(N)c34)cc2)no1 [Example 353, 4-(8-amino-3-{(3R)-1-[(3-methyloxetan-3-yl)carbonyl]piperidin-3-yl}imidazo[1,5-a]pyrazin-1-yl)-N-(5-methylisoxazol-3-yl)benzamide]"
< 10 nM,–,"CC1(C(=O)N2CCC[C@@H](c3nc(-c4ccc(C(=O)Nc5cc(C6CCC6)ccn5)cc4)c4c(N)nccn34)C2)COC1 [Example 354, 4-(8-amino-3-{(3R)-1-[(3-methyloxetan-3-yl)carbonyl]piperidin-3-yl}imidazo[1,5-a]pyrazin-1-yl)-N-(4-cyclobutylpyridin-2-yl)benzamide]"
